Measured values reported in patent US20040248234A1, “Sensitive and selective in vitro assay for the detection of reactive drug intermediates” (Pfizer Inc, priority 2003, published 2004).
Like-named read-outs stand apart in the source and are kept apart here.

Assays:
[1] = literature reports; cited from earlier work
[2] = test system: human liver microsomal (HL-mix-13)
[3] = test system: human liver microsomal (HL-mix-13); details: 10 μM substrate, 1 mM GSH, 0.5 μM P450, NADPH generating system, HPLC/SRM

Molecule	Response observed using GSH-EE as trapping agent [2]	further results
CC(=O)Nc1ccc(O)cc1 [Acetaminophen]		formation of reactive species / reactive intermediates as reported [1]: have been reported to produce such species
CCN(CC)Cc1cc(Nc2ccnc3cc(Cl)ccc23)ccc1O [Amodiaquine]	Yes	
NC(=O)N1c2ccccc2C=Cc2ccccc21 [Carbamazepine]	Yes	
O=C(O)Cc1ccccc1Nc1c(Cl)cccc1Cl [Diclofenac]	Yes	
COc1ccc2c(c1)c(CC(=O)O)c(C)n2C(=O)c1ccc(Cl)cc1 [Indomethacin]	No	
CN(CCOc1ccc(CC2SC(=O)NC2=O)cc1)c1ccccn1 (stereo not drawn) [Rosiglitazone]	Yes	
CC(=O)Oc1ccccc1C(=O)O [aspirin]		formation of reactive species / reactive intermediates as reported [1]: have not been reported to produce such reactive species
Felbamate		Response observed using GSH as trapping agent [3]: No (A response in the assay was deemed “no” if the signal to noise ratio was <10); Response observed using GSH-EE as trapping agent ([2]; 10 μM substrate, 1 mM GSH-EE, 0.5 μM P450, NADPH generating system, HPLC/SRM): Yes (A response in the assay was deemed “yes” if there were no co-eluting species contained in control (blank) samples and analyte peak to signal ratio was >10)
